Laboratory results from EP1182931B1, “STABLE BIOCIDAL COMPOSITIONS” (NUFARM LIMITED, priority 1999, dated 2000).

Key:
[1] = tested on: Trichostrongylus; test: Trial C0040 sheep roundworm and tapeworm trial: worm count; format: in vivo; details: lambs, oral, slaughter Day 7 and Day 8
Protocol: (§1) Fifty three pasture fed 6-8 month old Romney lambs from the southern North Island, New Zealand that were naturally infected with tapeworms, were orally dosed with three times the standard dose of ivermectin (3 x 0.2 = 0.6mg/kg liveweight) to remove their naturally acquired roundworm infection while leaving their tapeworm burden. The animals were then housed indoors on slats to prevent natural reinfections with roundworms and each lamb was orally dosed daily for 5 days with a similar mixture of 5,000 roundworm larvae (total 25,000 larvae) consisting primarily of Haemonchus, Trichostrongylus, Ostertagia and Nematodirus. The larvae originated from four New Zealand sheep farms, three of which had evidence of resistance to one or more drench families. Lambs were injected with 0.5mL of a corticosteroid (opticortenol) two days prior to artificial oral larval infection. This was done to assist establishment of the worm larvae. 25 days after infection the animals were restrictively allocated to groups by bodyweight and also the presence of tapeworm infection, to one of seven treatment groups (Groups A-G). Four treatment groups (the untreated control and test products Groups A-D) had 8 animals per group, and three groups (E-G) contained 7 animals per group. The groups with 7 animals per group (E, F, G) were orally dosed with a single standard commercial product. All animals were slaughtered at Day 7 and Day 8 after treatment and total numbers of gastrointestinal roundworms and tapeworms counted.

[2] = tested on: Nematodirus; test: as above; format: in vivo; details: lambs, oral, slaughter Day 7 and Day 8
Protocol: as §1

[3] = tested on: Ostertagia; test: as above; format: in vivo; details: lambs, oral, slaughter Day 7 and Day 8
Protocol: as §1

[4] = tested on: Haemonchus; test: as above; format: in vivo; details: lambs, oral, slaughter Day 7 and Day 8, arithmetic means
Protocol: as §1

[5] = tested on: Protozoa; details: Spectrum of Activity; cited from earlier work
[6] = tested on: Moniezia; test: Trial C0040 sheep roundworm and tapeworm trial: tapeworm count; format: in vivo; details: lambs, oral, slaughter Day 7 and Day 8
Protocol: as §1, with “The groups with 7 animals per group (E, F, G) were orally dosed with a single standard commercial product.” left out

[7] = tested on: gastrointestinal roundworm; test: Sheep trial CO52: faecal egg count reduction; format: in vivo; details: lambs, oral, six days after treatment, versus untreated controls, arithmetic mean
Protocol: An anthelmintic drench trial was conducted on a sheep farm in North Auckland, New Zealand using 67 Romney and Romney cross suffock lambs (18-35kg bodyweight) of mixed sex.
The 67 lambs were randomly allocated by egg count into 4 groups of 10 lambs (Groups A, B, C, D) and 3 groups of 9 lambs (Groups E, F, G). The 3 groups of 9 lambs (E, F G) were drenched with a commercial formulation from one of the three broad spectrum anthelmintic drench families consisting of albendazole, a member of the benzimidazole or white drenches (Group E), levamisole, a member of the imidazothiazole / tetrahydropyrimidazole or clear drenches (Group F) and Ivermectin, a member of the macrocyclic lactones (Group G). Of the 4 remaining groups, Group A remained as untreated controls, Group B received the unmineralised test product (formulation 00-27C) containing all 3 actives (albendazole, levamisole, ivermectin), Group C received the same basic formulation but with the addition of selenium as the sodium selenate (formulation 00-27B) and Group D received the same basic formulation but with the addition of both selenium and cobalt with cobalt given as the cobalt chelate (formulation 00-27A) - See Table 27.
All animals were weighed and dosed by syringe to the nearest 0.1ml with the appropriate product for that group. Six days after oral treatment the animals were slaughtered and faecal samples were collected at slaughter.

[8] = tested on: Gastrointestinal Worms; details: Spectrum of Activity; cited from earlier work

| Compound | reduction of Nematodirus in the small intestine [2] [%] | removal of worm numbers, Ostertagia [3] [%] | reductions in egg count [7] [%] | Nematodes Gastrointestinal Worms [8] | other results |
| --- | --- | --- | --- | --- | --- |
| CCCSc1ccc2nc(NC(=O)OC)[nH]c2c1 [Albendazole] | 59 | 64 | 63 | – | efficacy against Trichostrongylus in the small intestine [1]: 80%; reduction in worm numbers, Haemonchus [4]: 93%; Protozoa [5]: +(Giardia); effect on tapeworm Moniezia [6]: slight trend to less Moniezia volume |
| Cc1cc(C(C#N)c2ccc(Cl)cc2)c(Cl)cc1NC(=O)c1cc(I)cc(I)c1O (stereo not drawn) [Closantel] | – | – | – | +(Haemonchus) | – |
| COC(=O)Nc1nc2cc(Sc3ccccc3)ccc2[nH]1 [Fendendazole] | – | – | – | – | Protozoa [5]: +(Giardia) |
| c1ccc([C@H]2CN3CCSC3=N2)cc1 [Levamisole] | 99 | 96 | 22 | – | – |
| N#Cc1cc(I)c(O)c([N+](=O)[O-])c1 [Nitroxyinil] | – | – | – | +(Haemonchus) | – |
| O=C(Nc1cc(Cl)cc(Cl)c1O)c1c(O)c(Cl)cc(Cl)c1Cl [Oxydosanide] | – | – | – | +(Haemonchus) | – |
| O=C(Nc1ccc(Oc2ccc(Cl)cc2)c(Cl)c1)c1cc(I)cc(I)c1O [Rafoxamide] | – | – | – | +(Haemonchus) | – |
| Ivermectin | 100 | 54 | 79 | – | – |
